In patent publication US5698522A, “6-position modified decapeptide LHRH antagonists” (Abbott Laboratories, priority 1995, dated 1997):
*1 amine or outer side, *2 acyl side, *3 side chain or, on linkers, in order; H or OH if unused. Where a SMILES comes first, the peptide text is derived from it. Side-chain parts run from the residue outwards. [ ]: non-standard residue; d: D form. The star is where a group is joined. X3 = O=Cn1cc(C[C@@H](NC(=O)C2=C[C@@H](O)[C@@H](O)[C@H](O)C2)C(=O)*)c2ccccc21; Biotin = O=C1N[C@H]2[C@H](CS[C@H]2CCCCC(=O)*)N1; Quinoline3carbonyl = O=C(c1cnc2ccccc2c1)*; dPhe(4-Cl) = N[C@H](Cc1ccc(Cl)cc1)C(=O)O; d2Nal = N[C@H](Cc1ccc2ccccc2c1)C(=O)O; Acetyl(3-pyridyl) = O=C(Cc1cccnc1)*; Lys(iPr) = CC(C)NCCCC[C@H](N)C(=O)O; NMeY = CN[C@@H](Cc1ccc(O)cc1)C(=O)O; Ethylenediamine = C(CN[*:2])N[*:1]; Pyrazinecarbonyl = O=C(c1cnccn1)*; d3Pal = N[C@H](Cc1cccnc1)C(=O)O; Nicotinoyl = O=C(c1cccnc1)*; 2Furoyl = O=C(c1ccco1)*; CO = O=C([*:1])[*:2]; GABA = NCCCC(=O)O; azaGly = NNC(=O)O; βAla = NCCC(=O)O

Biological target: T1, LHRH receptor (Rattus norvegicus, UniProt P30969)
T1 construct: endogenous in cells
T1 sequence (P30969 1-327): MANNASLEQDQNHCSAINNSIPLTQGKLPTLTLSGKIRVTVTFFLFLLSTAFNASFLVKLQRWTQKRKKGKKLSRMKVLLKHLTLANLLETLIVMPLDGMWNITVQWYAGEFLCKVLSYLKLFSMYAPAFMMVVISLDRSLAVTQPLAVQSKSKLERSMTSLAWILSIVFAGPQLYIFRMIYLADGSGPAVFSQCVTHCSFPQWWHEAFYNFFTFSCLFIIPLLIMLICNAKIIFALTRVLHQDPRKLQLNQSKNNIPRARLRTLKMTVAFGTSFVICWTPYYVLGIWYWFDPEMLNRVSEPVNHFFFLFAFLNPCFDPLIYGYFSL
Assay: in vitro LHRH antagonist potency (pA2) against the agonist leuprolide
Format: cell-based
Conditions: negative logarithm of the antagonist concentration which shifts the response curve produced by the agonist leuprolide to two-fold higher concentration
Method: Representative compounds of the present invention were evaluated in in vitro tests for receptor binding (pKI) and for LHRH antagonist potency (pA2). The tests employed the methods detailed in F. Haviv, et al., J. Med. Chem., 32: 2340-2344 (1989). The receptor binding affinities (pKI) are the negative logarithms of the equilibtirum dissociation constants (pA2) are the negative logarithms of the concentration of antagonist which shift the response curve roduced by the agonist leuprolide to two-fold higher concentration. (Leuprolide is the LHRH agonist having the structure 5-oxo-Pro^1 -His^2 -Trp^3 -Ser^4 -Tyr^5 -D-Leu^6 -Leu^7 -Arg^8 -Pro^9 -NHEt and is disclosed and claimed in U.S. Pat. No. 4,005,063.) Typically pA2 values of 9.5 or greater are indicative of good LHRH antagonist potency.

SMILES	Kb [nM]
CC(=O)N[C@H](Cc1ccc2ccccc2c1)C(=O)N[C@H](Cc1ccc(Cl)cc1)C(=O)N[C@H](Cc1cccnc1)C(=O)N[C@@H](CO)C(=O)N(C)[C@@H](Cc1ccc(O)cc1)C(=O)N[C@H](CCCCNC(=O)NNC(=O)c1cccnc1)C(=O)N[C@@H](CC(C)C)C(=O)N[C@@H](CCCNC(=N)N)C(=O)N1CCC[C@H]1C(=O)N[C@H](C)C(N)=O [Example 37b, NAc-D2Nal^1 -D4ClPhe^2 -D3Pal^3 -Ser^4 -NMeTyr^5 -DLys(N-epsilon-Azagly-Nicotinyl)^6 -Leu^7 -Arg^8 -Pro^9 -DAla^10 NH2] (Ac-[d2Nal][dPhe(4-Cl)][d3Pal]S[NMeY][dK]([azaGly-Nicotinoyl])LRP[dA]-NH2)	0.00562
CC(=O)N[C@H](Cc1ccc2ccccc2c1)C(=O)N[C@H](Cc1ccc(Cl)cc1)C(=O)N[C@H](Cc1cccnc1)C(=O)N[C@@H](CO)C(=O)N(C)[C@@H](Cc1ccc(O)cc1)C(=O)N[C@H](CCCCNC(=O)NCCNC(=O)c1ccco1)C(=O)N[C@@H](CC(C)C)C(=O)N[C@@H](CCCNC(=N)N)C(=O)N1CCC[C@H]1C(=O)N[C@H](C)C(N)=O [Example 36, NAc-D2Nal^1 -D4ClPhe^2 -D3Pal^3 -Ser^4 -NMeTyr^5 -DLys[N-epsilon-(N'-Carbonyl-Diaminoethane-N"-Furoyl)]^6 -Leu^7 -Arg^8 -Pro^9 -DAla^10 NH2] (Ac-[d2Nal][dPhe(4-Cl)][d3Pal]S[NMeY][dK]([CO-Ethylenediamine-2Furoyl])LRP[dA]-NH2)	0.0107
CC(=O)N[C@H](Cc1ccc2ccccc2c1)C(=O)N[C@H](Cc1ccc(Cl)cc1)C(=O)N[C@H](Cc1cccnc1)C(=O)N[C@@H](CO)C(=O)N(C)[C@@H](Cc1ccc(O)cc1)C(=O)N[C@H](CCCCNC(=O)[C@@H](CO)NC(=O)c1cnc2ccccc2c1)C(=O)N[C@@H](CC(C)C)C(=O)N[C@@H](CCCNC(=N)N)C(=O)N1CCC[C@H]1C(=O)N[C@H](C)C(N)=O [Example 50d, NAc-D2Nal^1 -D4ClPhe^2 -D3Pal^3 -Ser^4 -NMeTyr^5 -DLys(N-epsilon-DSer-3-Quinolinyl)^6 -Leu^7 -Arg^8 -Pro^9 -DAla^10 NH2] (Ac-[d2Nal][dPhe(4-Cl)][d3Pal]S[NMeY][dK]([dS-Quinoline3carbonyl])LRP[dA]-NH2)	0.0479
CC(=O)N[C@H](Cc1ccc2ccccc2c1)C(=O)N[C@H](Cc1ccc(Cl)cc1)C(=O)N[C@H](Cc1cccnc1)C(=O)N[C@@H](CO)C(=O)N(C)[C@@H](Cc1ccc(O)cc1)C(=O)N[C@H](CCCCNC(=O)CNC(=O)c1cnccn1)C(=O)N[C@@H](CC(C)C)C(=O)N[C@@H](CCCNC(=N)N)C(=O)N1CCC[C@H]1C(=O)N[C@H](C)C(N)=O [Example 51e, NAc-D2Nal^1 -D4ClPhe^2 -D3Pal^3 -Ser^4 -NMeTyr^6 -DLys(N-epsilon-Gly-2-Pyrazinecarbonyl)^6 -Leu^7 -Arg^8 -Pro^9 -DAla^10 NH2] (Ac-[d2Nal][dPhe(4-Cl)][d3Pal]S[NMeY][dK]([Gly-Pyrazinecarbonyl])LRP[dA]-NH2)	0.00692
CC(=O)N[C@H](Cc1ccc2ccccc2c1)C(=O)N[C@H](Cc1ccc(Cl)cc1)C(=O)N[C@H](Cc1cccnc1)C(=O)N[C@@H](CO)C(=O)N(C)[C@@H](Cc1ccc(O)cc1)C(=O)N[C@H](CCCCNC(=O)CCNC(=O)NNC(=O)c1cccnc1)C(=O)N[C@@H](CC(C)C)C(=O)N[C@@H](CCCCNC(C)C)C(=O)N1CCC[C@H]1C(=O)N[C@H](C)C(N)=O [Example 25a, NAc-D2Nal^1 -D4ClPhe^2 -D3Pal^3 -Ser^4 -NMeTyr^5 -DLys[N-epsilon-(beta-Alanyl)-Azagly-Nicotinyl]^6 -Leu^7 -Lys(N-epsilon-Isopropyl)^8 -Pro^9 -DAla^10 NH2] (Ac-[d2Nal][dPhe(4-Cl)][d3Pal]S[NMeY][dK]([βAla-azaGly-Nicotinoyl])L[Lys(iPr)]P[dA]-NH2)	0.0363
CC(=O)N[C@H](Cc1ccc2ccccc2c1)C(=O)N[C@H](Cc1ccc(Cl)cc1)C(=O)N[C@H](Cc1cccnc1)C(=O)N[C@@H](CO)C(=O)N(C)[C@@H](Cc1ccc(O)cc1)C(=O)N[C@H](CCCCNC(=O)CNC(=O)Cc1cccnc1)C(=O)N[C@@H](CC(C)C)C(=O)N[C@@H](CCCNC(=N)N)C(=O)N1CCC[C@H]1C(=O)N[C@H](C)C(N)=O [Example 65c, NAc-D2Nal^1 -D4ClPhe^2 -D3Pal^3 -Ser^4 -NMeTyr^5 -DLys(N-epsilon-Gly-3Pyridylacetyl)^6 -Leu^7 -Arg^8 -Pro^9 -DAla^10 NH2] (Ac-[d2Nal][dPhe(4-Cl)][d3Pal]S[NMeY][dK]([Gly-Acetyl(3-pyridyl)])LRP[dA]-NH2)	0.0288
CC(=O)N[C@H](Cc1ccc2ccccc2c1)C(=O)N[C@H](Cc1ccc(Cl)cc1)C(=O)N[C@H](Cc1cccnc1)C(=O)N[C@@H](CO)C(=O)N(C)[C@@H](Cc1ccc(O)cc1)C(=O)N[C@H](CCCCNC(=O)[C@@H](CO)NC(=O)c1cccnc1)C(=O)N[C@@H](CC(C)C)C(=O)N[C@@H](CCCCNC(C)C)C(=O)N1CCC[C@H]1C(=O)N[C@H](C)C(N)=O [Example 4c, NAc-D2Nal^1 -D4ClPhe^2 -D3Pal^3 -Ser^4 -NMeTyr^5 -DLys[N-epsilon-DSer-Nicotinyl]^6 -Leu^7 -Lys(N-epsilon-Isopropyl)^8 -Pro^9 -DAla^10 NH2] (Ac-[d2Nal][dPhe(4-Cl)][d3Pal]S[NMeY][dK]([dS-Nicotinoyl])L[Lys(iPr)]P[dA]-NH2)	0.0158
CC(=O)N[C@H](Cc1ccc2ccccc2c1)C(=O)N[C@H](Cc1ccc(Cl)cc1)C(=O)N[C@H](Cc1cccnc1)C(=O)N[C@@H](CO)C(=O)N(C)[C@@H](Cc1ccc(O)cc1)C(=O)N[C@H](CCCCNC(=O)CCCNC(=O)CNC(=O)c1ccco1)C(=O)N[C@@H](CC(C)C)C(=O)N[C@@H](CCCCNC(C)C)C(=O)N1CCC[C@H]1C(=O)N[C@H](C)C(N)=O [Example 57e, NAc-D2Nal^1 -D4ClPhe^2 -D3Pal^3 -Ser^4 -NMeTyr^5 -DLys(N-epsilon-4-aminobutyryl-glycyl-furoyl)^6 -Leu^7 -Lys(Isp)^8 -Pro^9 -DAla^10 NH2] (Ac-[d2Nal][dPhe(4-Cl)][d3Pal]S[NMeY][dK]([GABA-Gly-2Furoyl])L[Lys(iPr)]P[dA]-NH2)	0.012
CC(=O)N[C@H](Cc1ccc2ccccc2c1)C(=O)N[C@H](Cc1ccc(Cl)cc1)C(=O)N[C@H](Cc1cccnc1)C(=O)N[C@@H](CO)C(=O)N(C)[C@@H](Cc1ccc(O)cc1)C(=O)N[C@H](CCCCNC(=O)NCCNC(=O)c1cccnc1)C(=O)N[C@@H](CC(C)C)C(=O)N[C@@H](CCCNC(=N)N)C(=O)N1CCC[C@H]1C(=O)N[C@H](C)C(N)=O [Example 14, NAc-D2Nal^1 -D4ClPhe^2 -D3Pal^3 -Ser^4 -NMeTyr^5 -DLys[N-epsilon-(N'-Carbonyl-Diaminoethane-N"-Nicotinyl)]^6 -Leu^7 -Arg^8 -Pro^9 -DAla^10 NH2] (Ac-[d2Nal][dPhe(4-Cl)][d3Pal]S[NMeY][dK]([CO-Ethylenediamine-Nicotinoyl])LRP[dA]-NH2)	0.166
CC(=O)N[C@H](Cc1ccc2ccccc2c1)C(=O)N[C@H](Cc1ccc(Cl)cc1)C(=O)N[C@H](Cc1cccnc1)C(=O)N[C@@H](CO)C(=O)N(C)[C@@H](Cc1ccc(O)cc1)C(=O)N[C@H](CCCCNC(=O)[C@@H](Cc1cn(C=O)c2ccccc12)NC(=O)C1=C[C@@H](O)[C@@H](O)[C@H](O)C1)C(=O)N[C@@H](CC(C)C)C(=O)N[C@@H](CCCNC(=N)N)C(=O)N1CCC[C@H]1C(=O)N[C@H](C)C(N)=O [Example 65a, NAc-D2Nal^1 -D4ClPhe^2 -D3Pal^3 -Ser^4 -NMeTyr^5 -DLys(N-epsilon-DTrp(Formyl)-Shikimyl)^6 -Leu^7 -Arg^8 -Pro^9 -DAla^10 NH2] (Ac-[d2Nal][dPhe(4-Cl)][d3Pal]S[NMeY][dK](X3)LRP[dA]-NH2)	0.0251
CC(=O)N[C@H](Cc1ccc2ccccc2c1)C(=O)N[C@H](Cc1ccc(Cl)cc1)C(=O)N[C@H](Cc1cccnc1)C(=O)N[C@@H](CO)C(=O)N(C)[C@@H](Cc1ccc(O)cc1)C(=O)N[C@H](CCCCNC(=O)CCCNC(=O)c1cccnc1)C(=O)N[C@@H](CC(C)C)C(=O)N[C@@H](CCCCNC(C)C)C(=O)N1CCC[C@H]1C(=O)N[C@H](C)C(N)=O [Example 4b, NAc-D2Nal^1 -D4ClPhe^2 -D3Pal^3 -Ser^4 -NMeTyr^5 -DLys[N-epsilon-(gamma-Aminobutyryl)Nicotinyl]^6 -Leu^7 -Lys(N-epsilon-Isopropyl)^8 -Pro^9 -DAla^10 NH2] (Ac-[d2Nal][dPhe(4-Cl)][d3Pal]S[NMeY][dK]([GABA-Nicotinoyl])L[Lys(iPr)]P[dA]-NH2)	0.0234
CC(=O)N[C@H](Cc1ccc2ccccc2c1)C(=O)N[C@H](Cc1ccc(Cl)cc1)C(=O)N[C@H](Cc1cccnc1)C(=O)N[C@@H](CO)C(=O)N(C)[C@@H](Cc1ccc(O)cc1)C(=O)N[C@H](CCCCNC(=O)CNC(=O)CCCC[C@@H]1SC[C@@H]2NC(=O)N[C@@H]21)C(=O)N[C@@H](CC(C)C)C(=O)N[C@@H](CCCCNC(C)C)C(=O)N1CCC[C@H]1C(=O)N[C@H](C)C(N)=O [Example 64, NAc-D2Nal^1 -D4ClPhe^2 -D3Pal^3 -Ser^4 -NMeTyr^5 -DLys(N-epsilon-Gly-Biotinyl)^6 -Leu^7 -Lys(N-epsilon-isopropyl)^8 -Pro^9 -DAla^10 NH2] (Ac-[d2Nal][dPhe(4-Cl)][d3Pal]S[NMeY][dK]([Gly-Biotin])L[Lys(iPr)]P[dA]-NH2)	0.0115
